Reference: US10266549B2, “ULK1 inhibitors and methods using same” (SALK INSTITUTE FOR BIOLOGICAL STUDIES, priority 2014, dated 2019)

What was measured:
[1] = target: ULK1 (Homo sapiens (Human), UniProt O75385); experiment: ULK1 inhibition assay (Table 1); assay type: biochemical; conditions: * = tested as a mixture of regioisomers
[2] = system: panel of 456 kinases; experiment: DiscoveRx KINOMEscan competition binding assay; set-up: species or system human
Protocol: FIG. 7E: (top) The kinase selectivity profile for compound 14 was determined using the DiscoveRx KINOMEscan profiling service. Briefly, compound 14 was screened at a 1-μM dose for its ability to impair binding of a panel of 456 kinases to substrate in an in vitro binding assay. Scores for the primary screen hits are reported as a percent of the DMSO control (% Control). Lower scores reflect stronger inhibitory effects of compound 14 on the target kinase. Compound 14 was very selective, only inhibiting 8 kinases >95% and 19 kinases >90% when tested at 10 μM. (bottom) In vitro kinase assays were performed for selected kinases. These assays were performed in the presence of compound 14 in a dose-response manner to identify the IC50 value for compound 14 for each of these individual kinases. […] Of the remaining kinases, those kinases which IC50 value was less than what was identified from ULK2 are highlighted in brown.
Kinase inhibitor specificity profiling assays were first carried out using DiscoveRx KINOMEscan competition binding assay against a panel of 456 kinases (www dot discoverx dot corn) using 1 μM compound 14.
We next examined the specificity of compound 14 using the DiscoveRx KINOMEscan panel of 456 purified human kinases and subsequent competition binding assay.

[3] = system: endogenous ULK1; experiment: endogenous ULK1 activity in MEFs: mobility shift of Beclin1 and Atg13; assay type: cell-based, mouse; conditions: WT MEFs, 10 μM co-treatment, 1 hr
Protocol: FIG. 7D: WT or Ulk1/Ulk2 double knockout mouse embryonic fibroblasts (MEFs) were treated with fresh media (Dulbecco's modified Eagle medium [DMEM] containing 10% FBS) containing 1-μM INK128, 1-μM AZD8055, or DMSO or with starvation media (EBSS) in the presence or absence of 10 μM compound 14. Cellular lysates were isolated after 1 hr of treatment and immunoblotted with the indicated antibodies. Asterisk denotes non-specific band.
We next examined whether compound 14 inhibits endogenous ULK1 activity. To activate endogenous ULK1, we treated MEFs with either amino acid starvation media (Earle's balanced salt solution [EBSS]) or the mTOR ATP-competitive inhibitors INK128 or AZD8055. In WT MEFs, we observed a mobility shift in endogenous Beclin1 and Atg13 in response to EBSS starvation media or the mTOR catalytic inhibitors, which was abolished in Ulk1/2-deficient MEFs (FIG. 7D). […] In certain embodiments, the mobility shifts observed in endogenous Beclin1 and Atg13 induced by mTOR inhibitors and starvation media reflect phosphorylation of endogenous Beclin1/Atg13 by endogenous ULK1/2 as they only occur in WT but not Ulk1/2-deficient MEFs.

[4] = system: MEFs; experiment: AnnexinV apoptosis analysis in nutrient-deprived MEFs; assay type: cell-based, mouse
Protocol: (§1) A549 cells (ATCC #CCL185) and MEFs were seeded at a concentration of 2.5×10^5 cells/mL (i.e., 750,000 cells per 6 cm dish), grown overnight (18 hrs) and treated as indicted in the figure legends. Unless otherwise indicated, “starvation” is EBSS and “control” is DMEM with full serum for indicated timepoints. Samples for western blot were washed once in 1× ice cold PBS and lysed in boiling SDS lysis buffer (10 mM Tris […], 100 mM NaCl, 1% SDS). After trituration, lysates were equilibrated for protein levels using the BCA method (Pierce) and resolved on 8 to 15% SDS-PAGE gels, depending on the size of the protein. PVDF membranes were probed with indicated antibodies overnight according to the manufacturers instructions.
For flow cytometry analysis, cells were collected at the appropriate time point, washed once in PBS, trypsinized and pelleted. For Annexin V staining, cells were washed in 1× Annexin V buffer and treated as described by the Annexin V staining protocol (BD Pharmingen, San Diego, Calif.). […] Stained cells were analyzed using a FACScan flow cytometer (Becton Dickinson, San Jose, Calif.). Flow cytometry data was analyzed using FlowJo 8.6 software (Tree Star Inc., Ashland, Oreg.). […]

[5] = system: A549 lung cancer cells; experiment: AnnexinV apoptosis analysis in A549 cells with mTOR inhibitor; assay type: cell-based
Protocol: as §1
(§2) For flow cytometry analysis, cells were collected at the appropriate time point, washed once in PBS, trypsinized and pelleted. For Annexin V staining, cells were washed in 1× Annexin V buffer and treated as described by the Annexin V staining protocol (BD Pharmingen, San Diego, Calif.). Briefly, cells were resuspended in Annexin V buffer to a concentration of one million per mL, 100,000 cells were then stained with 5 μL of phycoerythrin (PE)-conjugated Annexin V antibody (BD Pharmingen, San Diego, Calif.) and 5 μL of 7-amino-actinomycin D (7AAD) and then incubated at room temperature for 15 minutes. 400 μL of Annexin V buffer was then added to each sample with gentle mixing. Stained cells were analyzed using a FACScan flow cytometer (Becton Dickinson, San Jose, Calif.). Flow cytometry data was analyzed using FlowJo 8.6 software (Tree Star Inc., Ashland, Oreg.).
There has been great interest in the role of autophagy in the survival of tumor cells, particular tumor cells faced with metabolic stress from chemotherapies or targeted therapeutics. We next examined whether compound 14 would promote apoptosis in tumor cells similar to the MEFs, selectively under conditions in which autophagy is actively engaged. […] Given that mTOR activity is a dominant regulator of ULK1 activity, and we previously noted that treatment of cells with mTOR catalytic inhibitors was sufficient to induce ULK1 activity, we examined the effect of adding in the ULK1 inhibitor in the context of treatment with mTOR catalytic inhibitors. Using a cell line well-established to be sensitive to mTORC1 inhibition, A549 lung cancer cells, we treated with escalating doses of ULK1 inhibitor while keeping a constant cytostatic growth arrest-inducing 1 micromolar dose of the mTOR catalytic inhibitor AZD8055. We observed that 5 μM compound 14 in combination with AZD8055 triggered apoptosis in 22% of A549 cells compared to 9% of the 5 μM compound 14 alone or 6% of those cells treated with AZD8055 alone. […]

[6] = system: U87MG glioblastoma cells; experiment: AnnexinV apoptosis in U87MG cells; assay type: cell-based; conditions: selectively in the nutrient-starved state
Protocol: as §2
There has been great interest in the role of autophagy in the survival of tumor cells, particular tumor cells faced with metabolic stress from chemotherapies or targeted therapeutics. We next examined whether compound 14 would promote apoptosis in tumor cells similar to the MEFs, selectively under conditions in which autophagy is actively engaged. […]

[7] = panel of 456 kinases, tested at 10 μM as printed (method says 1 μM)

ULK1, sequence (O75385 whole entry, species assumed): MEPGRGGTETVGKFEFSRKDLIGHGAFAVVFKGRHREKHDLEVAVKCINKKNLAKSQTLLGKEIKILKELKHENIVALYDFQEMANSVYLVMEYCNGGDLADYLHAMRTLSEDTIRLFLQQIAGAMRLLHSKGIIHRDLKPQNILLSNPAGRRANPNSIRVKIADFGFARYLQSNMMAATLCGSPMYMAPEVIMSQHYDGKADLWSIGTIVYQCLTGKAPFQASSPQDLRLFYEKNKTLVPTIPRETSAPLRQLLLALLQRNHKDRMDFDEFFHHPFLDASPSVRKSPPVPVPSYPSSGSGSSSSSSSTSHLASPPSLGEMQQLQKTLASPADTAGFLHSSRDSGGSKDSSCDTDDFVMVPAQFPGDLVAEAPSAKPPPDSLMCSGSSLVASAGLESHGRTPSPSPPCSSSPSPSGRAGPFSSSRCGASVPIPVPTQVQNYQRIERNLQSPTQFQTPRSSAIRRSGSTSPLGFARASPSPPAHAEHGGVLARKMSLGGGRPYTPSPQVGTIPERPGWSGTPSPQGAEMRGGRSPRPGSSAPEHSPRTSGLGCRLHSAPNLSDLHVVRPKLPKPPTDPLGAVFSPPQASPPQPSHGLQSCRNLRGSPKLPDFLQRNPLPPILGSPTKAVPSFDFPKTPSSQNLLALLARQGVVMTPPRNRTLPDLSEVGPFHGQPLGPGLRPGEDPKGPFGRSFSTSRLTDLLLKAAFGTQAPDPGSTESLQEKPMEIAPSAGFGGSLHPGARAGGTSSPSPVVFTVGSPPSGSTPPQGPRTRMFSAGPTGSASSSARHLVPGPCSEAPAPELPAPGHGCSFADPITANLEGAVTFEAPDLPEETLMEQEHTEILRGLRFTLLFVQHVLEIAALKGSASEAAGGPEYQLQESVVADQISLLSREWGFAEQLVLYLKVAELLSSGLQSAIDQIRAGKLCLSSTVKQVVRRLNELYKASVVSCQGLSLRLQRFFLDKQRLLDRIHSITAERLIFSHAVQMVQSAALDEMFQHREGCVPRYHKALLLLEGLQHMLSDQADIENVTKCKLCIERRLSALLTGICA

## CNC(=O)c1ccccc1Nc1nc(Nc2cc(OC)c(OC)c(OC)c2)ncc1Br [compound 14, 2-(5-bromo-2-(3,4,5-trimethoxyphenylamino)pyrimidin-4-ylamino)-N-methylbenzamide]
[1]
  IC50: < 200 nM
[2]; (number of non-mutant kinases with % Ctrl <35)/(number of non-mutant kinases tested)
  S(35) selectivity index: 0.123
[2]; [7]
  number of kinases inhibited >90%: 19
  number of kinases inhibited >95%: 8
[3]
  EBSS and mTOR-inhibitor induced mobility shift in Beclin1 and Atg13: inhibited
[4]; MEFs, 24 h after amino-acid deprivation
  AnnexinV positive cells: 50%
[4]; glucose-deprived MEFs
  cell death: promoted cell death
[5]; 5 μM compound 14 alone
  apoptosis, % of A549 cells: 9%
[5]; 5 μM compound 14 in combination with 1 micromolar AZD8055
  apoptosis, % of A549 cells: 22%
[5]; 10 or 20 μM compound 14 with AZD8055
  induction of Annexin-V+ apoptotic A549 cells: even more dramatically heightened
[6]
  apoptosis (AnnexinV+ cells): promoted apoptosis
